Tested on: Myeloperoxidase (MPO) activity in kidneys
Experiment: Kidney myeloperoxidase (MPO) activity, Example 1
Assay type: in vivo, rat
Conditions: at 96 hours
Description: Experimental model for assessing the effects of Metalloporphyrin A on CIN: Diabetic (n=8) for group #'s 1-9 or wild-type rats (n=10) for group #'s 10 and 11 were treated with drug 60 min prior to contrast agent administration. At the “0” time point, Iomeprol was administered with ensuing drug intervention dosing every 12 hours for Metalloporphyrin A from 24-84 hours or every 24 hours for NAC from 24-72 hours. At the 96 hour time point, kidneys were harvested for histopathology, MPO and MDA measurements. From 0-96 hours, plasma samples from all animals per group were screened for urea, creatinine, fractional excretion of Na^+ and NGAL.
Myeloperoxidase (MPO) activity in kidneys was used as an indicator of polymorphonuclear (PMN) cell infiltration activation using a method previously described (Hillegass et al, J. Pharmacol. Methods. 24(4):285-95,1990).
At the end of the experiments, kidney tissue was weighed and homogenized in a solution containing 0.5% (wt/vol) hexadecyltrimethylammonium bromide dissolved in 10 mmol/L potassium phosphate buffer (pH 7.4) and centrifuged for 30 minutes at 20,000 g at 4° C. […] The rate of change in absorbance was measured spectrophotometrically at 650 nm. MPO activity was defined as the quantity of enzyme required to degrade 1 mmol of H2O2 at 37° C. and was expressed in U/g wet tissue.

## CC(=O)N[C@@H](CS)C(=O)O [NAC, N-acetylcysteine]
Diabetic rats + i.v. Iomeprol, Metalloporphyrin A 30-1000 μg/kg or NAC 10 mg/kg i.p.
  kidney MPO activity: significant reductions
Diabetic rats + i.v. saline (no contrast agent), Metalloporphyrin A 1000 μg/kg or NAC 10 mg/kg i.p.
  kidney MPO activity: significantly reduced the increase
